Laboratory results as given in patent US20210395210A1, “INHIBITION OF BACTERIAL CHAPERONIN SYSTEMS” (THE TRUSTEES OF INDIANA UNIVERSITY, priority 2018, published 2021).
Where two headings read alike, the source gives them in different places.

Key:
human HSP60/10 = biological target: T1, human HSP60/10 (Homo sapiens, UniProt P10809); test: HSP60/10-mediated dMDH refolding assay; type: biochemical
T1 construct: octa-Histidine tag (TEV-cleavable) (N, cleaved yes); made in house; host or cells: HSP60 in E. coli Rosetta 2 (DE3); HSP10 in Rosetta 2 (DE3) pLysS
Description: Reagent preparation: For these assays, four primary reagent stocks were prepared: 1) GroEUES-dMDH or HSP60/10-dMDH binary complex stock; 2) ATP initiation stock; 3) EDTA quench stock; 4) MDH enzymatic assay stock. Denatured MDH (dMDH) was prepared by 2-fold dilution of MDH (5 mg/ml, soluble pig heart MDH from Roche, product #10127248001) with denaturant buffer (7 M guanidine-HCl, 200 mM Tris, pH 7.4, and 50 mM DTT). MDH was completely denatured by incubating at room temperature for 45 min. The binary complex solutions were prepared by slowly adding the dMDH stock to a stirring stock with GroEL (or HSP60) in folding buffer (50 mM Tris-HCl, pH 7.4, 50 mM KCl, 10 mM MgCl2, and 1 mM DTT), followed by addition of GroES (or HSP10). The binary complex stocks were prepared immediately prior to dispensing into the assay plates and had final protein concentrations of 83.3 nM GroEL (Mr 800 kDa) or HSP60 (Mr 400 kDa), 100 nM GroES or HSP10 (Mr 70 kDa), and 20 nM dMDH in folding buffer. For the ATP initiation stock, ATP solid was diluted into folding buffer to a final concentration of 2.5 mM. Quench solution contained 600 mM EDTA (pH 8.0). The MDH enzymatic assay stock consisted of 20 mM sodium mesoxalate and 2.4 mM NADH in reaction buffer (50 mM Tris-HCl, pH 7.4, 50 mM KCl, and 1 mM DTT).
Assay Protocol: First, 30 μL aliquots of the GroEL/ES-dMDH or HSP60/10-dMDH binary complex stocks were dispensed into clear, 384-well polystyrene plates. […] The chaperonin-mediated refolding cycles were initiated by addition of 20 μL of ATP stock (reagent concentrations during refolding cycle: 50 nM GroEL or HSP60, 60 nM GroES or HSP10, 12 nM dMDH, 1 mM ATP, and compounds of 100 μM to 46 nM, 3-fold dilution series). The refolding reactions were incubated at 37° C. […] Next, the assay was quenched by addition of 10 μL of the EDTA to final concentration of 100 mM. […] A340 nm measurements were recorded at 0.5 minutes (start point) and at successive time points until the amount of NADH consumed reached ˜90% (end point, generally between 20-35 minutes). The differences between the start and end point A340 values were used to calculate the % inhibition of the GroEL/ES or HSP60/10 machinery by the compounds. […] Results presented represent the averages of IC50 values obtained from at least quadriplicate (duplicate of duplicate) replicates.

[1] = system: Pseudomonas aeruginosa (ATCC 10145); test: Bacterial proliferation assay, P. aeruginosa; type: cell-based
Description: (§1) Bacterial Strains: Enterococcus faecium—(Orla-Jensen) Schleifer and Kilpper-Balz strain NCTC 7171 (ATCC 19434); Drug sensitive Staphylococcus aureus—Rosenbranch strain Seattle 1945 (ATCC 25923); Methicillin resistant S. aureus (MRSA)—Rosenbach strain HPV107 (ATCC BAA-44); Klebsiella Pneumonia—(Schroeter) Trevisan strain NCTC 9633 (ATCC 13883); Acinetobacter baumannii—Bouvet and Grimont strain 2208 (ATCC 19606); Pseudomonas aeruginosa—(Schroeter) Migula strain NCTC 10332 (ATCC 10145); Enterobacter cloacae—E. cloacae, subsp. cloacae (Jordan) Hormaeche and Edwards strain CDC 442-68 (ATCC 13047).
(§2) Growth Media: All bacteria were grown in Brain Heart Infusion (BHI) broth/agar (Becton, Dickinson and Company). All liquid cultures were grown in BHI media supplemented with 25 mg/L Ca^2+ and 12.5 mg/L Mg^2+ to mimic free physiological concentrations of these cations. A 10 mg/mL Ca^2+ stock solution was prepared by dissolving 3.68 g of CaCl2.2H2O in 100 mL of deionized water, and a 10 mg/mL Mg^2+ stock solution was prepared by dissolving 8.36 g of MgCl2.6H2O in 100 mL deionized water. Both stock solutions were filter-sterilized using 0.2 μm pore size cellulose-acetate filters. 2.5 mL of the sterile 10 mg/mL Ca^2+ stock and 1.25 mL of the sterile 10 mg/mL Mg^2+ stock solutions were added per 1 L of autoclaved BHI medium to obtain 25 mg/L Ca^2+ and 12.5 mg/L Mg^2+ ions, respectively.
(§3) General Assay Protocol: Stock bacterial cultures were streaked onto BHI agar plates and grown overnight at 37° C. Fresh aliquots of broth were inoculated with single bacterial colonies and the cultures were grown overnight at 37° C. with shaking (240 rpm) in cation adjusted BHI media. The following morning, the overnight cultures were sub-cultured (1:5 dilution) into fresh aliquots of cation adjusted BHI media and grown at 37° C. for 1-2 hours with shaking. After 2 h, cultures were diluted into fresh media to achieve final OD600 readings of 0.017. Aliquots of these diluted cultures (30 μL) were added to clear, flat-bottom, 384-well polystyrene plates that were stamped with 0.5 μL of test compounds in 20 μL media. […] Plates were sealed with “Breathe Easy” oxygen permeable membranes (Diversified Biotech) and left to incubate at 37° C. without shaking (stagnant assay). OD600 nm readings were taken at either 6-8 h (S. aureus, MRSA, K. pneumonia, E. cloacae, and P. aeruginosa) or 24 h (E. faecium and A. baumannii). A second set of baseline control plates were prepared analogously, but without any bacteria added, to correct for possible compound absorbance and/or precipitation. Plates were then read at 600 nm using a Molecular Devices SpectraMax Plus384 microplate reader. […] Results presented represent the averages of EC50 values obtained from at quadriplicate (duplicate of duplicate) replicates.

[2] = system: Enterococcus faecium (ATCC 19434); test: Bacterial proliferation assay, E. faecium; type: cell-based
Description: as §1, §2, §3

[3] = system: Acinetobacter baumannii (ATCC 19606); test: Bacterial proliferation assay, A. baumannii; type: cell-based
Description: as §1, §2, §3

[4] = system: Klebsiella Pneumonia (ATCC 13883); test: Bacterial proliferation assay, K. pneumoniae; type: cell-based
Description: as §1, §2, §3

[5] = human HSP60/10-dMDH refolding assay, read-out: HSP60/10-dMDH Refolding IC50
[6] = log(IC50) ± standard deviation, human HSP60/10-dMDH refolding assay, read-out: HSP60/10-dMDH Refolding Assay log(IC50) (converted)
[7] = ATCC10145, OD600 at 6-8 h, read-out: Bacterial Proliferation EC50 P. aeruginosa
[8] = ATCC10145, log of EC50 (μM scale), with standard deviation, read-out: log(EC50) Bacterial Proliferation Assay P. aeruginosa (converted)
[9] = ATCC19434, OD600 at 24 h, read-out: Bacterial Proliferation EC50 E. faecium
[10] = ATCC19434, log of EC50 (μM scale), with standard deviation, read-out: log(EC50) Bacterial Proliferation Assay C. faecium (converted)
[11] = ATCC19606, OD600 at 24 h, read-out: Bacterial Proliferation EC50 A. baumannii
[12] = ATCC19606, log of EC50 (μM scale), with standard deviation, read-out: log(EC50) Bacterial Proliferation Assay A. baumannii (converted)
[13] = ATCC13883, OD600 at 6-8 h, read-out: Bacterial Proliferation EC50 K. pneumoniae
[14] = ATCC13883, log of EC50 (μM scale), with standard deviation, read-out: log(EC50) Bacterial Proliferation Assay K. pneumoniae (converted)

T1 sequence (P10809 27-573): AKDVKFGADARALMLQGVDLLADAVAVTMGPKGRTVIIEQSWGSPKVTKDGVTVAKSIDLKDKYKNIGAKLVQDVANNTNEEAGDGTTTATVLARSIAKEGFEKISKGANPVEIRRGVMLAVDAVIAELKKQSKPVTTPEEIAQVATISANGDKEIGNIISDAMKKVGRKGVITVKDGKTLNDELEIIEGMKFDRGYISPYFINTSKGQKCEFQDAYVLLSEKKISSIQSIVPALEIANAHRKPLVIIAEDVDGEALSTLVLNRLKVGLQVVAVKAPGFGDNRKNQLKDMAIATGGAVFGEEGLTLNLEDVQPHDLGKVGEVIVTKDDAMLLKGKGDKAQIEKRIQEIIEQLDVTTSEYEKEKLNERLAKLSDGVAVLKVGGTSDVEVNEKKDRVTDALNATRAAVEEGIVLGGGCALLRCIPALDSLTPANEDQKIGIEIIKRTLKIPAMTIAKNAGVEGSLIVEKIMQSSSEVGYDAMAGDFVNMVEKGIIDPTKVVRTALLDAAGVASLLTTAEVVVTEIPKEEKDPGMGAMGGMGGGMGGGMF

Row | Compound | IC50 (human HSP60/10; [5]) [µM] | IC50 (human HSP60/10; [6]) [µM] | EC50 [1, 7] [µM] | EC50 [1, 8] [µM] | EC50 [2, 9] [µM] | EC50 [2, 10] [µM] | EC50 [3, 11] [µM] | EC50 [3, 12] [µM] | EC50 [4, 13] [µM] | EC50 [4, 14] [µM] | IC50 (human HSP60/10) [µM] | HSP60/10-dMDH Refolding Assay log(IC50) (human HSP60/10; log(IC50) ± standard deviation, human HSP60/10-dMDH refolding assay) | EC50 ([1]; ATCC10145, read-out: Bacterial Proliferation EC50 P. aeruginosa) [µM] | EC50 ([1]; ATCC10145, read-out: log(EC50) Bacterial Proliferation Assay P. aeruginosa (converted)) [µM] | EC50 ([2]; ATCC19434, 24 h, read-out: Bacterial Proliferation EC50 E. faecium) [µM] | EC50 ([2]; ATCC19434, read-out: log(EC50) Bacterial Proliferation Assay C. faecium (converted)) [µM] | EC50 ([3]; ATCC19606, 24 h, read-out: Bacterial Proliferation EC50 A. baumannii) [µM] | EC50 ([3]; ATCC19606, read-out: log(EC50) Bacterial Proliferation Assay A. baumannii (converted)) [µM] | EC50 ([4]; ATCC13883, read-out: Bacterial Proliferation EC50 K. pneumoniae) [µM] | EC50 ([4]; ATCC13883, read-out: log(EC50) Bacterial Proliferation Assay K. pneumoniae (converted)) [µM]
1 | O=C(Nc1ccc(Sc2nc3ccccc3s2)c(Cl)c1)c1ccccc1 [Compound 19, N-(4-(Benzo[d]thiazol-2-ylthio)-3-chlorophenyl)benzamide] | > 100 | > 100 | > 100 | > 100 | > 100 | > 100 | > 100 | > 100 | > 100 | > 100 |  |  |  |  |  |  |  |  |  | 
2 | CN[C@H](CC(C)C)C(=O)N[C@H]1C(=O)N[C@@H](CC(N)=O)C(=O)N[C@H]2C(=O)N[C@H]3C(=O)N[C@H](C(=O)N[C@H](C(=O)O)c4cc(O)cc(O)c4-c4cc3ccc4O)[C@H](O)c3ccc(c(Cl)c3)Oc3cc2cc(c3O[C@@H]2O[C@H](CO)[C@@H](O)[C@H](O)[C@H]2O[C@H]2C[C@](C)(N)[C@H](O)[C@H](C)O2)Oc2ccc(cc2Cl)[C@H]1O [Vancomycin, vancomycin, reference compound] |  |  |  |  |  |  |  |  |  |  | > 100 | >2 | > 100 | > 100 | 0.6 | 0.589 | > 100 | > 100 | > 100 | > 100
3 | O=C(Nc1cccc(Cl)c1)c1ccccc1O [Compound 12, N-(3-Chlorophenyl)-2-hydroxybenzamide] | > 100 | > 100 | > 100 | > 100 | > 100 | > 100 | > 100 | > 100 | > 100 | > 100 |  |  |  |  |  |  |  |  |  | 
4 | O=C(Nc1ccc(Sc2nc3ccccc3s2)c(Cl)c1)c1ccccc1O [Compound 4, N-(4-(Benzo[d]thiazol-2-ylthio)-3-chlorophenyl)-2-hydroxybenzamide] | > 100 | > 100 | > 100 | > 100 | 64 | 63.1 | > 100 | > 100 | > 100 | > 100 |  |  |  |  |  |  |  |  |  | 
5 | O=C(Nc1ccc(Sc2nc3ccccc3s2)cc1)c1cccc(Br)c1 [Compound 21, N-(4-(Benzo[d]thiazol-2-ylthio)phenyl)-3-bromobenzamide] | > 100 | > 100 | > 100 | > 100 | > 100 | > 100 | > 100 | > 100 | > 100 | > 100 |  |  |  |  |  |  |  |  |  | 
6 | O=C(Nc1cccc(Cl)c1)c1cccc(Br)c1O [Compound 10, 3-Bromo-N-(3-chlorophenyl)-2-hydroxybenzamide] | > 100 | > 100 | > 100 | > 100 | > 100 | > 100 | > 100 | > 100 | > 100 | > 100 |  |  |  |  |  |  |  |  |  | 
7 | COc1c(Br)cc(Br)cc1C(=O)Nc1ccccc1 [Compound 41, 3,5-Dibromo-2-methoxy-N-phenylbenzamide] | > 100 | > 100 | > 100 | > 100 | > 100 | > 100 | > 100 | > 100 | > 100 | > 100 |  |  |  |  |  |  |  |  |  | 
8 | COc1ccccc1C(=O)Nc1ccc(Sc2nc3ccccc3s2)cc1 [Compound 36, N-(4-(Benzo[d]thiazol-2-ylthio)phenyl)-2-methoxybenzamide] | > 100 | > 100 | > 100 | > 100 | > 100 | > 100 | > 100 | > 100 | > 100 | > 100 |  |  |  |  |  |  |  |  |  | 
9 | O=C(Nc1cccc(Cl)c1)c1cc(Br)cc(Br)c1 [Compound 23, 3,5-Dibromo-N-(3-chlorophenyl)benzamide] | > 100 | > 100 | > 100 | > 100 | > 100 | > 100 | > 100 | > 100 | > 100 | > 100 |  |  |  |  |  |  |  |  |  | 
10 | O=C(Nc1ccccc1)c1cccc(Br)c1 [Compound 27, 3-Bromo-N-phenylbenzamide] | > 100 | > 100 | > 100 | > 100 | > 100 | > 100 | > 100 | > 100 | > 100 | > 100 |  |  |  |  |  |  |  |  |  | 
